Measurements published in patent US8377944B2, “Thienopyrimidine derivatives” (ASKA Pharmaceutical Co., Ltd., priority 2005, dated 2013).
pIC50: −log10 of the molar value.

Experiments:
[1] = molecular target: T1, human recombinant PDE5 protein (Homo sapiens, UniProt O76074); assay: Measurement of PDE5-inhibiting activity; format: biochemical; details: human recombinant PDE5, [3H]-cGMP substrate; read-out: Inhibitory Activity (IC50 value) PDE 5
T1 construct: made in house; host or cells: COS-1 cells, transient transfection of pcDNA 3.1(+); supernatant of the cell homogenate
Excerpt: (2) Measurement of PDE5-Inhibiting Activity:
1) Preparation of Human Recombinant PDE5 Protein
Based on the base sequence of hsPDE5A1 registered with GenBank database (accession No.: NM_001083), hsPDE5A1 fragment was amplified by polymerase chain reaction under the following conditions, using the following sequence (SIGMA GENOSYS) as the primer and Human Prostate […] cDNA library (CLONTECH) as the template DNA, with KDD plus DNA polymerase (TOYOBO): […]
hPDE5-5′E primer: […] [SEQ ID NO: 3] […]
hPDE5-3′ primer: […] [SEQ ID NO: 4]
PCR condition: [94° C., 2 min]×1 cycle, [(94° C., 30 sec), (65° C., 30 sec), (68° C., 3 min)]×25 cycle, [68° C., 6 min]×1 cycle Thus obtained hsPDE5A1 fragment was given a restricted enzymatic treatment with XBaI and EcoRI, and thereafter inserted into pcDNA 3.1(+) expression vector (Invitrogen) to let it serve as a human PDE5 expression vector.
Human PDE5 expression vector-transformed Escherichia coli was mass incubated to produce a large amount of PDE5 expression vector, which was transiently transfected into COS-1 cells, with LIPOFECTAMINE 2000 Reagent (GIBCO). The cells were homogenized in ice-cooled buffer A and centrifuged at 4° C., 14,000×g for 10 minutes. The supernatant was isolated to provide human recombinant PDE5 protein solution.
2) Measurement of PDE5-Inhibiting Activity
By a method similar to the measurement of PDE9-inhibiting activity, PDE5-inhibiting activity of the test compounds was measured, their inhibition was calculated and IC50 value to PDE5 of each of the compounds was determined. The results are shown in the following Table A, concurrently with the compounds' IC50 values against PDE9.

[2] = molecular target: T2, human recombinant PDE9 protein (Homo sapiens, UniProt O76083); assay: Measurement of PDE9-inhibiting activity; format: biochemical; details: human recombinant PDE9, [3H]-cGMP substrate; read-out: Inhibitory Activity (IC50 value) PDE 9
T2 construct: made in house; host or cells: COS-1 cells, transient transfection of pcDNA 3.1(+); supernatant of the cell homogenate
T2 sequence (O76083 whole entry): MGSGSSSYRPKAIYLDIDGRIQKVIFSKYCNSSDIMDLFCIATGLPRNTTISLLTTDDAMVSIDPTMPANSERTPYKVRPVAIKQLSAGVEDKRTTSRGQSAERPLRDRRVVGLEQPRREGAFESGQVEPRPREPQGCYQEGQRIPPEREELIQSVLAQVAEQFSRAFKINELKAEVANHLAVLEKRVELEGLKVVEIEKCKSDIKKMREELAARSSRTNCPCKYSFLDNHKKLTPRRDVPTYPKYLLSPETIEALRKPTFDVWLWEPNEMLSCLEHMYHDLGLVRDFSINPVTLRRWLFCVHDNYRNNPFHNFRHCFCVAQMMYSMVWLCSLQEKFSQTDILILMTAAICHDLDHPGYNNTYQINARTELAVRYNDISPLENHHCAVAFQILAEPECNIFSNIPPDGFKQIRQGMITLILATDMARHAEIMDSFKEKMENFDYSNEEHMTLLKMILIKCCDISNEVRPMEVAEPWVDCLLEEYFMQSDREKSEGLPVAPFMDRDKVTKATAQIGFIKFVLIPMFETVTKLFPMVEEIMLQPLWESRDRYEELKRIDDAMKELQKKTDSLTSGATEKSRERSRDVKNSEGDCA
Excerpt: (1) Measurement of PDE9-Inhibiting Activity:
1) Preparation of Human Recombinant PDE9 Protein
Based on the base sequence of hsPDE9A1 registered with GenBank database (accession No.: AF048837), hsPDE9A1 fragment was amplified by polymerase chain reaction under the following conditions, using the following sequence (Amasham Pharmacia Biotech) as the primer and Human Prostate […] cDNA library (CLONTECH) as the template DNA, with Pfu Turbo DNA polymerase ([…]):
hPDE9-5A primer: […] [SEQ ID NO: 1]
hPDE9-3A primer: […] [SEQ ID NO: 2]
PCR condition: [95° C., 5 min]×1 cycle, [(95° C., 1 min), (58° C., 2 min), (72° C., 3 min)]×25 cycle, [72° C., 10 min]×1 cycle
Thus obtained hsPDE9A1 fragment was given a restricted enzymatic treatment with NheI and NotI, and thereafter inserted into pcDNA 3.1(+) expression vector (Invitrogen) to let it serve as a human PDE9 expression vector.
Human PDE9 expression vector-transformed Escherichia coli was mass incubated to produce a large amount of PDE9 expression vector, which was transiently transfected into COS-1 cells, with LIPOFECTAMINE 2000 Reagent (GIBCO). […]
To 150 μL of buffer B (70 mmol/L Tris-HCl, pH7.5; 16.7 mmol/L MgCl2, 33.3 nmol/L [^3H]-cGMP) solution containing [^3H]-cGMP (specific activity=244.2 GBq/mmol) at a concentration of 33.3 nmol/L, 50 μL of a solution of the compound to be evaluated (formed by dissolving the compound in DMSO and diluting it with distilled water to DMSO concentration of 5%) and 50 μL of the PDE9 protein solution as prepared in the above, as diluted with buffer C (40 mmol/L Tris-HCl, pH7.5, 15 mmol/L benzamidine, 15 mmol/L 2-mercaptoethanol, 1 μg/mL Pepstatin A, 1 μg/mL Leupeptin) by 1,500×, were added under cooling with ice. […] Thereafter [^3H]-guanosine was eluted with 3 mL of 3 mol/L aqueous ammonia and its radiation activity was measured with liquid scintillation counter.
PDE9 inhibition of the tested compound can be calculated by the following formula: […]
From the inhibition ratios at various concentration levels of each tested compound, its IC50 value against PDE9 was determined.

[3] = test system: model of urethral obstruction with the guinea pigs; assay: Dysuria pathological model (urethral obstruction), cystometry; format: in vivo, guinea pig; details: for Frequency of non-voiding contraction, pre-administration / Residual urine volume, pre-administration: baseline before administration; for Frequency of non-voiding contraction, pre-administration / Residual urine volume, pre-administration / Frequency of non-voiding contraction, post-administration / Residual urine volume, post-administration: mean; for Frequency of non-voiding contraction, post-administration / Residual urine volume, post-administration: up to 30 min after administration; for Frequency of non-voiding contraction, quantitative change / Residual urine volume, quantitative change: post minus pre
Description: (3) Investigation of PDE9 Inhibitory Activity on Dysuria Pathological Model
Three to four weeks old female Hartley strain guinea pigs (Nippon SLC) were laparotomized under anesthesia with pentobarbital (30 mg/kg i.p.), and a polyethylene tube of 1.4 mm in width and 2.0 mm in inner diameter was placed in each guinea pig's urethra to the distal side by 1-2 mm from the bladder neck. After closing the incision, the guinea pigs were reared for at least 3 weeks to provide a model of urethral obstruction with the guinea pigs in which rise in intravesical pressure not accompanied by voiding (non-voiding contraction) and residual urine were induced.
The model was catheterized under anesthesia with urethane (1 g/kg i.p.) at the apex of urinary bladder and right jugular vein for cystometrography and intravenous administration, respectively. The other end of the bladder catheter was connected to a pressure transducer and infusion pump through three way stopcock. By means of the infusion pump, physiological saline was continuously infused into the bladder at a rate of 0.4 mL/min to induce micturition reflex. Immediately after the micturition reflex was induced, the physiological saline infusion into the bladder was stopped. The intravesical pressure at the time the micturition occurred was measured with the pressure transducer and the cystometrogram was recorded with pen recorder. The urine voided was collected with a disposable type weighing dish to measure its weight. Further the physiological saline remained in the bladder was sucked with syringe through the bladder catheter to measure the residual urine volume. Multiple operation cycles (normally 4 times) of suspending physiological saline infusion when micturition reflex was induced and resuming the infusion after about 1 minute to induce next micturition reflex, were repeated to stabilize the voiding response.
Also the frequency of non-voiding contraction occurred during the operations was measured. The respective mean values of frequency of non-voiding contraction and residual urine volume in the experiment using several guinea pigs are shown in the following Table B.

Compound	Frequency of non-voiding contraction, pre-administration ([3]; 10 mg/kg i.v.) [count/min]	Residual urine volume, pre-administration ([3]; 10 mg/kg i.v.) [mL]	Frequency of non-voiding contraction, post-administration ([3]; 10 mg/kg i.v.) [count/min]	Frequency of non-voiding contraction, pre-administration ([3]; 0.3 mg/kg i.v.) [count/min]	Frequency of non-voiding contraction, post-administration ([3]; 0.3 mg/kg i.v.) [count/min]	Frequency of non-voiding contraction, pre-administration ([3]; 3 mg/kg i.v.) [count/min]	Residual urine volume, pre-administration ([3]; 3 mg/kg i.v.) [mL]	Frequency of non-voiding contraction, post-administration ([3]; 3 mg/kg i.v.) [count/min]	Residual urine volume, post-administration ([3]; 10 mg/kg i.v.) [mL]	also measured
2-(Cyclopent-1-enylmethyl)-5-methyl-4-thioxo-3,4-dihydrothieno[2,3-d]pyrimidine-6-carboxylic acid and 2-cyclopentylidenemethyl-5-methyl-4-thioxo-3,4-dihydrothieno-[2,3-d]pyrimidine-6-carboxylic acid [Example 117]	–	–	–	–	–	–	–	–	–	pIC50 [1]: 6.07; pIC50 [2]: 7.62
Cc1c(C(=O)O)sc2nc(Cc3cccs3)[nH]c(=O)c12 [Example 2, 5-Methyl-4-oxo-2-(thiophen-2-ylmethyl)-3,4-dihydrothieno[2,3-d]pyrimidine-6-carboxylic acid]	0.91	1.27	0.78	–	–	–	–	–	–	Frequency of non-voiding contraction, pre-administration ([3]; 1 mg/kg i.v.): 0.91 count/min; Residual urine volume, pre-administration ([3]; 1 mg/kg i.v.): 1.27 mL; Frequency of non-voiding contraction, post-administration ([3]; 1 mg/kg i.v.): 0.47 count/min
Cc1c(C(=O)O)sc2nc(Cc3ccc(Cl)s3)[nH]c(=O)c12 [Example 3, 2-(5-Chlorothiophen-2-ylmethyl)-5-methyl-4-oxo-3,4-dihydrothieno[2,3-d]pyrimidine-6-carboxylic acid]	–	–	–	–	–	–	–	–	–	pIC50 [1]: 5.16; pIC50 [2]: 7.47
Cc1c(C(=O)O)sc2nc(Cc3cccc(Cl)c3)[nH]c(=O)c12 [Example 10, 2-(3-Chlorobenzyl)-5-methyl-4-oxo-3,4-dihydrothieno-[2,3-d]pyrimidine-6-carboxylic acid]	1.16	–	0.60	1.16	0.80	1.16	0.95	0.49	0.95	Residual urine volume, pre-administration ([3]; 0.3 mg/kg i.v.): 0.95 mL
Cc1c(C(=O)O)sc2nc(Cc3ccc(Cl)c(Cl)c3)[nH]c(=O)c12 [Example 36, 2-(3,4-Dichlorobenzyl)-5-methyl-4-oxo-3,4-dihydrothieno-[2,3-d]pyrimidine-6-carboxylic acid]	1.11	1.06	0.64	–	–	1.16	1.33	0.77	0.64	Frequency of non-voiding contraction, pre-administration ([3]; 1 mg/kg i.v.): 0.96 count/min; Residual urine volume, pre-administration ([3]; 1 mg/kg i.v.): 0.82 mL; Frequency of non-voiding contraction, post-administration ([3]; 1 mg/kg i.v.): 0.79 count/min; Residual urine volume, post-administration ([3]; 1 mg/kg i.v.): 0.86 mL
O=C(O)c1cc2c(=O)[nH]c(Cc3cccc(Cl)c3)nc2s1 [Example 104, 2-(3-Chlorobenzyl)-4-oxo-3,4-dihydrothieno[2,3-d]pyrimidine-6-carboxylic acid]	1.57	1.68	0.83	1.08	0.55	1.44	1.37	0.78	0.62	Residual urine volume, pre-administration ([3]; 0.3 mg/kg i.v.): 1.54 mL; Frequency of non-voiding contraction, quantitative change ([3]; 0.3 mg/kg i.v.): −0.53 count/min; Residual urine volume, quantitative change ([3]; 0.3 mg/kg i.v.): -0.52 mL; Residual urine volume, post-administration ([3]; 0.3 mg/kg i.v.): 1.02 mL; Frequency of non-voiding contraction, quantitative change ([3]; 3 mg/kg i.v.): −0.66 count/min; Residual urine volume, quantitative change ([3]; 3 mg/kg i.v.): -0.49 mL; Residual urine volume, post-administration ([3]; 3 mg/kg i.v.): 0.88 mL; Frequency of non-voiding contraction, quantitative change ([3]; 10 mg/kg i.v.): −0.74 count/min; Residual urine volume, quantitative change ([3]; 10 mg/kg i.v.): -1.06 mL
Cc1c(C(=O)O)sc2nc(Cc3cccc(Cl)c3)[nH]c(=S)c12 [Example 112, 2-(3-Chlorobenzyl)-5-methyl-4-thioxo-3,4-dihydrothieno-[2,3-d]pyrimidine-6-carboxylic acid]	1.12	1.02	0.59	1.12	1.02	1.12	1.02	0.76	0.48	Residual urine volume, post-administration ([3]; 0.3 mg/kg i.v.): 0.91 mL; Residual urine volume, post-administration ([3]; 3 mg/kg i.v.): 0.27 mL
